Measured values from PubChem BioAssay AID1963825 (Molecular Pharmacology Branch, DTP, NCI, 2024).

Test: Anticancer human tumor 997537-175-T-J1-PDC patient-derived colon adenocarcinoma cell line growth inhibition [POLQ]
Settings: 997537-175-T-J1-PDC complex spheroid viability, combination with POLQ inhibitors; for IC50: curve of first compound; for viability, T/C: stronger effect = lower value
In short: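 Patient-derived tumour cells were co-cultured with HUVEC and mesenchymal stem cells as multicellular spheroids at 37 °C. They were treated with POLQ inhibitors (novobiocin, ART-558, RP6685) alone or combined with other agents. Top concentrations were at or near clinical Cmax (otherwise 10 microM; SN-38 at 1 microM), decreasing in half-log steps.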

[1] = second compound 0.0316 µM, first compound 0.0316 µM
[2] = second compound 0.0316 µM, first compound 0.1 µM
[3] = second compound 0.0316 µM, first compound 0.316 µM
[4] = second compound 0.0316 µM, first compound 1 µM
[5] = second compound 0.0316 µM, first compound 3.16 µM
[6] = second compound 0.0316 µM, first compound 10 µM
[7] = second compound 0.1 µM, first compound 0.0316 µM
[8] = second compound 0.1 µM, first compound 0.1 µM
[9] = second compound 0.1 µM, first compound 0.316 µM
[10] = second compound 0.1 µM, first compound 1 µM
[11] = second compound 0.1 µM, first compound 3.16 µM
[12] = second compound 0.1 µM, first compound 10 µM
[13] = second compound 0.316 µM, first compound 0.0316 µM
[14] = second compound 0.316 µM, first compound 0.1 µM
[15] = second compound 0.316 µM, first compound 0.316 µM
[16] = second compound 0.316 µM, first compound 1 µM
[17] = second compound 0.316 µM, first compound 3.16 µM
[18] = second compound 0.316 µM, first compound 10 µM
[19] = second compound 1 µM, first compound 0.0316 µM
[20] = second compound 1 µM, first compound 0.1 µM
[21] = second compound 1 µM, first compound 0.316 µM
[22] = second compound 1 µM, first compound 1 µM
[23] = second compound 1 µM, first compound 3.16 µM
[24] = second compound 1 µM, first compound 10 µM
[25] = second compound 3.16 µM, first compound 0.0316 µM
[26] = second compound 3.16 µM, first compound 0.1 µM
[27] = second compound 3.16 µM, first compound 0.316 µM
[28] = second compound 3.16 µM, first compound 1 µM
[29] = second compound 3.16 µM, first compound 3.16 µM
[30] = second compound 3.16 µM, first compound 10 µM
[31] = second compound 10 µM, first compound 0.0316 µM
[32] = second compound 10 µM, first compound 0.1 µM
[33] = second compound 10 µM, first compound 0.316 µM
[34] = second compound 10 µM, first compound 1 µM
[35] = second compound 10 µM, first compound 3.16 µM
[36] = second compound 10 µM, first compound 10 µM
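Also: luminescence signal used as a surrogate for viable cells; spheroids exposed to drugs for seven days before readout.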

## CC1COCCN1c1cc(C2(S(C)(=N)=O)CC2)nc(-c2ccnc3[nH]ccc23)n1 (stereo unspecified) + COC1C(OC(N)=O)C(O)C(Oc2ccc3c(O)c(NC(=O)c4ccc(O)c(CC=C(C)C)c4)c(=O)oc3c2C)OC1(C)C
Second compound 0.0316 µM
  IC50: > 10 µM
Second compound 0.1 µM
  IC50: > 10 µM
Second compound 0.316 µM
  IC50: > 10 µM
Second compound 1 µM
  IC50: > 10 µM
Second compound 3.16 µM
  IC50: > 10 µM
Second compound 10 µM
  IC50: > 10 µM
[1]
  viability, T/C: 113%
[2]
  viability, T/C: 114%
[3]
  viability, T/C: 84.4%
[4]
  viability, T/C: 85.4%
[5]
  viability, T/C: 90%
[6]
  viability, T/C: 49.9%
[7]
  viability, T/C: 94.5%
[8]
  viability, T/C: 102%
[9]
  viability, T/C: 82.7%
[10]
  viability, T/C: 72.1%
[11]
  viability, T/C: 80.3%
[12]
  viability, T/C: 60.5%
[13]
  viability, T/C: 99.8%
[14]
  viability, T/C: 112%
[15]
  viability, T/C: 105%
[16]
  viability, T/C: 94.2%
[17]
  viability, T/C: 77.7%
[18]
  viability, T/C: 54.7%
[19]
  viability, T/C: 110%
[20]
  viability, T/C: 92.7%
[21]
  viability, T/C: 102%
[22]
  viability, T/C: 106%
[23]
  viability, T/C: 67%
[24]
  viability, T/C: 56.4%
[25]
  viability, T/C: 109%
[26]
  viability, T/C: 112%
[27]
  viability, T/C: 106%
[28]
  viability, T/C: 94.3%
[29]
  viability, T/C: 79.2%
[30]
  viability, T/C: 66.6%
[31]
  viability, T/C: 109%
[32]
  viability, T/C: 95.7%
[33]
  viability, T/C: 98.9%
[34]
  viability, T/C: 66.5%
[35]
  viability, T/C: 71.6%
[36]
  viability, T/C: 62.8%

## COc1ccc([C@@H](O)c2cc(-c3ncnc4cc(N5CCOCC5)ccc34)c(F)cc2Cl)nn1 + COC1C(OC(N)=O)C(O)C(Oc2ccc3c(O)c(NC(=O)c4ccc(O)c(CC=C(C)C)c4)c(=O)oc3c2C)OC1(C)C
Second compound 0.0316 µM
  IC50: > 10 µM
Second compound 0.1 µM
  IC50: > 10 µM
Second compound 0.316 µM
  IC50: > 10 µM
Second compound 1 µM
  IC50: > 10 µM
Second compound 3.16 µM
  IC50: > 10 µM
Second compound 10 µM
  IC50: > 10 µM
[1]
  viability, T/C: 116%
[2]
  viability, T/C: 115%
[3]
  viability, T/C: 110%
[4]
  viability, T/C: 92%
[5]
  viability, T/C: 105%
[6]
  viability, T/C: 87.7%
[7]
  viability, T/C: 109%
[8]
  viability, T/C: 103%
[9]
  viability, T/C: 95.3%
[10]
  viability, T/C: 97.5%
[11]
  viability, T/C: 94.4%
[12]
  viability, T/C: 98.5%
[13]
  viability, T/C: 107%
[14]
  viability, T/C: 103%
[15]
  viability, T/C: 92.5%
[16]
  viability, T/C: 96.8%
[17]
  viability, T/C: 115%
[18]
  viability, T/C: 81.7%
[19]
  viability, T/C: 98%
[20]
  viability, T/C: 106%
[21]
  viability, T/C: 109%
[22]
  viability, T/C: 92.4%
[23]
  viability, T/C: 97.2%
[24]
  viability, T/C: 77.4%
[25]
  viability, T/C: 106%
[26]
  viability, T/C: 108%
[27]
  viability, T/C: 109%
[28]
  viability, T/C: 105%
[29]
  viability, T/C: 93.3%
[30]
  viability, T/C: 83.8%
[31]
  viability, T/C: 111%
[32]
  viability, T/C: 103%
[33]
  viability, T/C: 118%
[34]
  viability, T/C: 83.6%
[35]
  viability, T/C: 115%
[36]
  viability, T/C: 114%

## CNCc1ccc(-c2[nH]c3cc(F)cc4c3c2CCNC4=O)cc1 + COC1C(OC(N)=O)C(O)C(Oc2ccc3c(O)c(NC(=O)c4ccc(O)c(CC=C(C)C)c4)c(=O)oc3c2C)OC1(C)C
Second compound 0.0316 µM
  IC50: > 10 µM
Second compound 0.1 µM
  IC50: > 10 µM
Second compound 0.316 µM
  IC50: > 10 µM
Second compound 1 µM
  IC50: > 10 µM
Second compound 3.16 µM
  IC50: > 10 µM
Second compound 10 µM
  IC50: > 10 µM
[1]
  viability, T/C: 104%
[2]
  viability, T/C: 96.7%
[3]
  viability, T/C: 90.3%
[4]
  viability, T/C: 97.5%
[5]
  viability, T/C: 101%
[6]
  viability, T/C: 104%
[7]
  viability, T/C: 102%
[8]
  viability, T/C: 97%
[9]
  viability, T/C: 80.2%
[10]
  viability, T/C: 97.9%
[11]
  viability, T/C: 103%
[12]
  viability, T/C: 106%
[13]
  viability, T/C: 100%
[14]
  viability, T/C: 101%
[15]
  viability, T/C: 93.6%
[16]
  viability, T/C: 87%
[17]
  viability, T/C: 95.5%
[18]
  viability, T/C: 78.3%
[19]
  viability, T/C: 94.7%
[20]
  viability, T/C: 101%
[21]
  viability, T/C: 101%
[22]
  viability, T/C: 92.8%
[23]
  viability, T/C: 99.3%
[24]
  viability, T/C: 84.1%
[25]
  viability, T/C: 97.8%
[26]
  viability, T/C: 98.1%
[27]
  viability, T/C: 104%
[28]
  viability, T/C: 101%
[29]
  viability, T/C: 85.8%
[30]
  viability, T/C: 86.8%
[31]
  viability, T/C: 99.5%
[32]
  viability, T/C: 95.9%
[33]
  viability, T/C: 105%
[34]
  viability, T/C: 96.6%
[35]
  viability, T/C: 97.5%
[36]
  viability, T/C: 90.3%
